Reference: PMC7024361, “Vaginal Polyelectrolyte Layer-by-Layer Films Based on Chitosan Derivatives and Eudragit® S100 for pH Responsive Release of Tenofovir” (Marine Drugs, 2020)
In brackets after ≈: the same amount, converted by molar mass.

Experiments:
[1] = Material cytotoxicity, CellTiter Glo; format: cell-based; conditions: human, maximum concentration tested 1000 µg/mL
Method: To study cell toxicity, the materials were incubated in culture media at 37 °C and 5% CO2 for 48 h before the assay to ensure that any potential toxic component would be present in the dilutions to be tested. The cell culture was then treated with a suspension of base 5 serial dilutions of the most concentrated suspension (1000 µg/mL). Experiments were performed in lymphoblastic (MT-2) and macrophage-monocyte (THP-1) derived cell lines to evaluate toxicity on the immune cells present in vaginal or uterine mucosae, and in a uterine epithelial cell line (HEC-1A) to evaluate the potential damage to mucosal integrity (Figure 12).
Three human cell lines were used: a lymphoblastic cell line, MT-2 [65], a macrophage-monocyte derived cell line, THP-1 (ATCC® TIB-202) and a uterine/endometrial epithelial cell line, HEC-1A (ATCC® HTB-112™) (kindly provided by Maria Angeles Muñoz). All the cell lines were cultured in RPMI 1640 medium supplemented with 10 % (v/v) fetal bovine serum, 2 mM L-glutamine and […] streptomycin (all Whittaker M.A. Bio-Products, Walkerville, MD, USA) at 37 °C in a humidified atmosphere of 5 % CO2. To detach the HEC-1-A cells, the medium was removed and the flask was rinsed during 10 min with 1 to 2 mL of trypsin 0.25%—EDTA 0.03% solution. The medium was replaced every three days after cell centrifugation at 1500 rpm for 5 min.
Cell toxicity was measured using the CellTiter Glo kit (Promega, Madison, WI, USA). Cells were incubated in 96-well plates at a density of […] cells per well (MT-2 and THP-1) and 2 × 10^4 (HEC-1A) in complete medium. To assess the cytotoxic effect, cells were exposed to fresh medium containing different concentrations of lactic acid, tartaric acid, citric acid, TEC and ES100 suspensions, or the same concentration of PBS 1× as control. Experiments were performed in triplicate and the culture was maintained at 37 °C and 5% CO2 humidified atmosphere for 48 h. A standard method was followed to suspend the materials in PBS 1× [66]. After incubation for 48 h, the medium was removed from cell cultures and 50 µL of CellTiter Glo reactive was added to each well on the plate. Relative luminescence units (RLUs) were measured in a luminometer (Sirius, Berthold Detection Systems). Cytotoxic concentration 50 (CC50) values were calculated using GraphPad Prism Software (non-linear regression, log inhibitor versus response). The results of the cytotoxic assay are shown as the average of at least three individual experiments.

HIV = system: HIV; set-up: method as in PMID 22964245; conditions: women; cited from earlier work
[2] = HEC-1A uterine/endometrial epithelial cells
[3] = MT-2 lymphoblastic cells, MT-2, 48 h
[4] = THP-1 macrophage-monocyte derived cells, THP1, 48 h

SMILES | CC50 at 48 h [1, 2] | CC50 at 48 h [1, 3] | CC50 at 48 h [1, 4] | cervicovaginal fluid concentration that confers protection against HIV (HIV)
O=C(O)CC(O)(CC(=O)O)C(=O)O [Citric acid, citric acid] | > 1000 µg/mL | > 1000 µg/mL | ~1000 µg/mL (≈ 5.2 mM) | 
CC(O)C(=O)O (stereo not drawn) [Lactic acid, L(+)-Lactic acid] | > 1000 µg/mL | > 1000 µg/mL | > 1000 µg/mL | 
CCOC(=O)CC(O)(CC(=O)OCC)C(=O)OCC [TEC, triethylcitrate] | > 1000 µg/mL | ~1000 µg/mL (≈ 3.62 mM) | > 1000 µg/mL | 
C[C@H](Cn1cnc2c(N)ncnc21)OCP(=O)(O)O [TFV, Tenofovir] |  |  |  | 1000 ng/mL
O=C(O)C(O)C(O)C(=O)O (stereo not drawn) [Tartaric acid, L(+)-Tartaric acid] | ~200 µg/mL (≈ 1.33 mM) | > 1000 µg/mL | > 1000 µg/mL | 
